Reference: patent US6706740B2, “Fungicidal heterocyclic aromatic amides and their compositions, methods of use and preparation” (Dow AgroSciences LLC, priority 1999, dated 2004)

Experiments:
[1] = system: Magnaporthe grisea (Pyricularia oryzae—PYRIOR); experiment: microbe, parasite or virus in culture; type: cell-based; details: Pyricularia oryzae, read-out: PYRIOR in vitro Growth Inhibition
[2] = system: Rhizoctonia solani (RHIZSO); experiment: microbe, parasite or virus in culture; type: cell-based; details: Rhizoctonia solani, read-out: RHIZSO in vitro Growth Inhibition
[3] = system: Mycosphaerella graminicola (Septoria tritici—SEPTTR); experiment: In vitro fungal growth inhibition, Mycosphaerella graminicola (SEPTTR); type: cell-based; details: Zymoseptoria tritici; 25 ppm in the growth medium; read-out: SEPTTR in vitro Growth Inhibition
[4] = system: Stagonospora nodorum (Leptosphaeria nodorum—LEPTNO); experiment: In vitro fungal growth inhibition, Stagonospora nodorum (LEPTNO); type: cell-based; details: Leptosphaeria; 25 ppm in the growth medium; read-out: LEPTNO in vitro Growth Inhibition
Ustilago maydis (USTIMA) = experiment: microbe, parasite or virus in culture; type: cell-based; details: Mycosarcoma maydis, read-out: USTIMA in vitro Growth Inhibition
[5] = system: Phytophthora infestans (PHYTIN); experiment: microbe, parasite or virus in culture; type: cell-based; details: Phytophthora infestans, read-out: PHYTIN in vitro Growth Inhibition
[6] = system: Phytophthora infestans—PHYTIN; experiment: whole plant or invertebrate; type: in vivo; details: Phytophthora, in Solanum lycopersicum, 24 h, read-out: PHYTIN in vivo 1 Day Protectant
[7] = system: Puccinia recondita—PUCCRT; experiment: Brown Rust of Wheat, in vivo whole plant, 24 Hour Protectant; details: Puccinia; wheat plants sprayed at 100 ppm, inoculated after 24 hours; control of fungal infection vs untreated plants; read-out: PUCCRT in vivo 1 Day Protectant
Erysiphe graminis—ERYSGT = experiment: Powdery Mildew of Wheat, in vivo whole plant, 24 Hour Protectant; details: Erysiphe; wheat plants sprayed at 100 ppm, inoculated after 24 hours; control of fungal infection vs untreated plants; read-out: ERYSGT in vivo 1 Day Protectant
Septoria tritici—SEPTTR = experiment: Leaf Blotch of Wheat, in vivo whole plant, 24 Hour Protectant; details: Zymoseptoria tritici, 24 h, wheat plants sprayed at 100 ppm, inoculated after 24 hours; control of fungal infection vs untreated plants; read-out: SEPTTR in vivo 1 Day Protectant
[8] = system: Leptosphaeria nodorum—LEPTNO; experiment: Glume Blotch of Wheat, in vivo whole plant, 24 Hour Protectant; details: Leptosphaeria; wheat plants sprayed at 100 ppm, inoculated after 24 hours; control of fungal infection vs untreated plants; read-out: LEPTNO in vivo 1 Day Protectant

SMILES | inhibition at 25 ppm [1] | inhibition at 25 ppm [2] | inhibition at 25 ppm [3] | inhibition at 25 ppm [4] | inhibition at 25 ppm (Ustilago maydis (USTIMA)) | inhibition at 25 ppm [5] | pest or weed control at 100 ppm [6] | pest or weed control at 100 ppm [7] | pest or weed control at 100 ppm (Erysiphe graminis—ERYSGT) | pest or weed control at 100 ppm (Septoria tritici—SEPTTR) | pest or weed control at 100 ppm [8] | melting point
CSc1nnc(C(=O)NC2CC(C)(C)CC(C)(C)C2)c(O)n1 [Compound 545] | < 80% | < 80% | < 80% | < 80% | < 80% | > 80% | 25 to 74% | 25 to 74% | < 25% | 25 to 74% | 25 to 74% | 265 to 268 °C
CSc1nnc(C(=O)NC2CCCCCCC2)c(O)n1 [Compound 546] | < 80% | < 80% | < 80% | < 80% | < 80% | > 80% | < 25% | 25 to 74% | < 25% | 25 to 74% | 25 to 74% | 208 to 213 °C
CSc1nnc(C(=O)Nc2ccc(Oc3cccc(C(F)(F)F)c3)cc2)c(O)n1 [Compound 548] | < 80% | < 80% | < 80% | < 80% | < 80% | < 80% | 25 to 74% | < 25% | < 25% | 25 to 74% | 25 to 74% | 261 to 265 °C
CC1(C)CC(NC(=O)c2nscc2O)CC(C)(C)C1 [Compound 549] | < 80% | < 80% | > 80% | < 80% | < 80% | > 80% | < 25% | < 25% | < 25% | 25 to 74% | 25 to 74% | 121 to 125 °C
CC1(C)CC(NC(=O)c2nsnc2O)CC(C)(C)C1 [Compound 552] | > 80% | > 80% | > 80% | > 80% | < 80% | > 80% | 25 to 74% | < 25% | 25 to 74% | < 25% | < 25% | 96 to 102 °C
CC1(C)CC(NC(=O)c2cscc2O)CC(C)(C)C1 [Compound 554, 4-HYDROXYTHIOPHENE-N-(3,3,5,5-TETRAMETHYLCYCLOHEXYL)-3-CARBOXAMIDE] | > 80% | < 80% | < 80% | > 80% | < 80% | > 80% | < 25% | 25 to 74% | < 25% | 25 to 74% | 25 to 74% | 170 to 174 °C
CC(C)C(=O)O[C@H]1[C@H](C)OC(=O)[C@@H](NC(=O)c2cnn(C)c2O)COC(=O)[C@@H]1Cc1ccccc1 [Compound 556] | < 80% | < 80% | < 80% | < 80% | < 80% | > 80% | < 25% | 25 to 74% | < 25% | < 25% | 25 to 74% | 195 °C (dec.)
Cn1cc(C(=O)NC2CC(C)(C)CC(C)(C)C2)c(O)n1 [Compound 557] | < 80% | < 80% | < 80% | < 80% | < 80% | > 80% | < 25% | 25 to 74% | < 25% | 25 to 74% | 25 to 74% | 205 to 208 °C
CC(C)C(=O)O[C@H]1[C@H](C)OC(=O)[C@@H](NC(=O)c2cn(C)nc2O)COC(=O)[C@@H]1Cc1ccccc1 [Compound 558] | < 80% | < 80% | < 80% | < 80% | < 80% | < 80% | < 25% | 25 to 74% | < 25% | 25 to 74% | 25 to 74% | 199 to 205 °C
CC1(C)CC(NC(=O)c2cn(-c3ccccc3)nc2O)CC(C)(C)C1 [Compound 559] | < 80% | < 80% | < 80% | < 80% | < 80% | < 80% | < 25% | 25 to 74% | < 25% | < 25% | 25 to 74% | 215 to 217 °C
CC1(C)CC(NC(=O)c2conc2O)CC(C)(C)C1 [Compound 560] | < 80% | < 80% | < 80% | < 80% | < 80% | < 80% | < 25% | 25 to 74% | < 25% | 25 to 74% | 25 to 74% | 186 to 188 °C
CC(C)C(=O)O[C@H]1[C@H](C)OC(=O)[C@@H](NC(=O)c2conc2O)COC(=O)[C@@H]1Cc1ccccc1 [Compound 561] | < 80% | < 80% | < 80% | < 80% | < 80% | < 80% | < 25% | 25 to 74% | 25 to 74% | 25 to 74% | < 25% | 115 to 117 °C
CC(C)C(=O)O[C@H]1[C@H](C)OC(=O)[C@@H](NC(=O)c2nc3ccccc3cc2O)COC(=O)[C@@H]1Cc1ccccc1 [Compound 562] | < 80% | < 80% | < 80% | < 80% | < 80% | < 80% | < 25% | < 25% | 25 to 74% | 25 to 74% | < 25% | 163 to 165 °C
